Source: BindingDB's records for doi:10.1016/j.bmcl.2005.03.003 (Gsk, 2005)

Biological target: T1, Phenylalanine--tRNA ligase alpha/beta subunit (Staphylococcus aureus, UniProt P68849+Q9AGR3)
T1 sequence (P68849 whole entry): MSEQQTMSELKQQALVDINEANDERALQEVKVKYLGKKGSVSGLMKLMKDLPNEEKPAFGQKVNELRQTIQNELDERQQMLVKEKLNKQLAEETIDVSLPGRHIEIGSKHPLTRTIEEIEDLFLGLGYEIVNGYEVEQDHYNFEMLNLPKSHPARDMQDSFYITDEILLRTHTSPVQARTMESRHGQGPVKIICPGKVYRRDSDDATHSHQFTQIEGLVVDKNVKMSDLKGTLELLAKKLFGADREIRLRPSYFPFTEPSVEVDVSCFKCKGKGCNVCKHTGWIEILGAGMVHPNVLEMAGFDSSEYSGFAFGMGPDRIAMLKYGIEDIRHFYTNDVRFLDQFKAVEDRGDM
T1 sequence (Q9AGR3 whole entry): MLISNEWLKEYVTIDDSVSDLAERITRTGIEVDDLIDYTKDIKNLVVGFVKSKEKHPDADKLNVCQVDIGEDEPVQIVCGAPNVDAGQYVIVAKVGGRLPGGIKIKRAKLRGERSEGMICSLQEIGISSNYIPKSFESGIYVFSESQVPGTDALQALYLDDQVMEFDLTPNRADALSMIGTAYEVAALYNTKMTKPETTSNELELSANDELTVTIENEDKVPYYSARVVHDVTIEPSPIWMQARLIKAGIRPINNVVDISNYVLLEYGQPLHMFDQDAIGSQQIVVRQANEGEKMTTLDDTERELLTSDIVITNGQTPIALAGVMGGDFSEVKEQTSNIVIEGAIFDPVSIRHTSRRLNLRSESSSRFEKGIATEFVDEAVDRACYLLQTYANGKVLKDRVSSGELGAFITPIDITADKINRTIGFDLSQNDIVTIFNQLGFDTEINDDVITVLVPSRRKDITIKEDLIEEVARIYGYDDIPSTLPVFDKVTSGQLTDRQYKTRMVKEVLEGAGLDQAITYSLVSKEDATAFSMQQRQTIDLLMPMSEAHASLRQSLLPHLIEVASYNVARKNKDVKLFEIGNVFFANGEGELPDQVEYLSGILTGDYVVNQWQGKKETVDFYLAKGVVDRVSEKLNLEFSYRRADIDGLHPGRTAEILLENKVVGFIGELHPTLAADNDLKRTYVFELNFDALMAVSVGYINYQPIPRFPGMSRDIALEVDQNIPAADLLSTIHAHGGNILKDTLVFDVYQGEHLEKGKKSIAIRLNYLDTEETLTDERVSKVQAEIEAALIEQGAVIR
Test: Homogeneous Enzyme Assay with SPA Beads
Procedure: The reactions were performed in […] 384-well Packard Optiplates. After 10 min of incubation, the reaction was stopped by addition of a continuously shaken suspension of YSi SPA beads at pH 2. Under acidic conditions, SPA beads bind tRNA aggregates, while radiolabeled amino acid substrate remains in solution. The beads were allowed to settle for at least 45 min and the plates were counted in a microplate scintillation counter TopCount (Packard).

| IC50 (pH 7.9, 37 °C) [nM] | IC50 (pH 2) [nM] | Structure (SMILES) |
| --- | --- | --- |
| > 10000 |  | OC(CNCc1ccccc1N1CCOCC1)c1cccc(C(F)(F)F)c1 (configuration not stated) [2-({[2-(morpholin-4-yl)phenyl]methyl}amino)-1-[3-(trifluoromethyl)phenyl]ethan-1-ol] |
|  | 43 | O=C(O)CCCOc1ccccc1CNCC(O)c1cc(Br)cs1 (configuration not stated) [4-[2-({[2-(4-bromothiophen-2-yl)-2-hydroxyethyl]amino}methyl)phenoxy]butanoic acid] |
